Where two headings read alike, the source gives them in different places.

The subject of one experiment is ABCG2-482-G2. Briefly: cells. The note with it: 72 h, read-out: IC50 ± SD^†; nM (resistance fold) / ABCG2-482-G2.
The subject of the next experiment is ABCG2-482-T7. Briefly: cells. The note with it: 72 h, read-out: IC50 ± SD^†; nM (resistance fold) / ABCG2-482-T7.
Experiment [1] concerns HEK293/pcDNA3.1. Briefly: cells. The conditions noted are these: Homo sapiens, HEK293, 72 h, read-out: IC50 ± SD^†; nM (resistance fold) / HEK293/pcDNA3.1.
For a further experiment, the system named is ABCG2-482-R2. As to the kind of experiment: cells. The conditions noted are these: 72 h, read-out: IC50 ± SD^†; nM (resistance fold) / ABCG2-482-R2.
A further experiment deals with KB-C2. As to the kind of experiment: cells. The conditions noted are these: Homo sapiens, KB-C2, 72 h, read-out: IC50 ± SD^†; nM (resistance fold) / KB-C2.
In another experiment the test system is KB-3-1. As to the kind of experiment: cells. The note with it: Homo sapiens, KB 3-1, 72 h, read-out: IC50 ± SD^†; nM (resistance fold) / KB-3-1.
For experiment [2], the system named is HEK293/pcDNA3.1. As to the kind of experiment: cells. The note with it: Homo sapiens, HEK293, 72 h, read-out: IC50 ± SD^†; nM (resistance fold) / HEK293/pcDNA3.1. The source holds these as a separate data set.
A further experiment deals with HEK/ABCB1. Briefly: cells. The conditions noted are these: 72 h, read-out: IC50 ± SD^†; nM (resistance fold) / HEK/ABCB1.
The next experiment concerns the target ABCB1 (P-glycoprotein) (Homo sapiens, UniProt P08183). Briefly: competition of […]-IAAP photoaffinity labeling. The format is binding.

ABCB1 (P-glycoprotein), sequence (P08183 whole entry): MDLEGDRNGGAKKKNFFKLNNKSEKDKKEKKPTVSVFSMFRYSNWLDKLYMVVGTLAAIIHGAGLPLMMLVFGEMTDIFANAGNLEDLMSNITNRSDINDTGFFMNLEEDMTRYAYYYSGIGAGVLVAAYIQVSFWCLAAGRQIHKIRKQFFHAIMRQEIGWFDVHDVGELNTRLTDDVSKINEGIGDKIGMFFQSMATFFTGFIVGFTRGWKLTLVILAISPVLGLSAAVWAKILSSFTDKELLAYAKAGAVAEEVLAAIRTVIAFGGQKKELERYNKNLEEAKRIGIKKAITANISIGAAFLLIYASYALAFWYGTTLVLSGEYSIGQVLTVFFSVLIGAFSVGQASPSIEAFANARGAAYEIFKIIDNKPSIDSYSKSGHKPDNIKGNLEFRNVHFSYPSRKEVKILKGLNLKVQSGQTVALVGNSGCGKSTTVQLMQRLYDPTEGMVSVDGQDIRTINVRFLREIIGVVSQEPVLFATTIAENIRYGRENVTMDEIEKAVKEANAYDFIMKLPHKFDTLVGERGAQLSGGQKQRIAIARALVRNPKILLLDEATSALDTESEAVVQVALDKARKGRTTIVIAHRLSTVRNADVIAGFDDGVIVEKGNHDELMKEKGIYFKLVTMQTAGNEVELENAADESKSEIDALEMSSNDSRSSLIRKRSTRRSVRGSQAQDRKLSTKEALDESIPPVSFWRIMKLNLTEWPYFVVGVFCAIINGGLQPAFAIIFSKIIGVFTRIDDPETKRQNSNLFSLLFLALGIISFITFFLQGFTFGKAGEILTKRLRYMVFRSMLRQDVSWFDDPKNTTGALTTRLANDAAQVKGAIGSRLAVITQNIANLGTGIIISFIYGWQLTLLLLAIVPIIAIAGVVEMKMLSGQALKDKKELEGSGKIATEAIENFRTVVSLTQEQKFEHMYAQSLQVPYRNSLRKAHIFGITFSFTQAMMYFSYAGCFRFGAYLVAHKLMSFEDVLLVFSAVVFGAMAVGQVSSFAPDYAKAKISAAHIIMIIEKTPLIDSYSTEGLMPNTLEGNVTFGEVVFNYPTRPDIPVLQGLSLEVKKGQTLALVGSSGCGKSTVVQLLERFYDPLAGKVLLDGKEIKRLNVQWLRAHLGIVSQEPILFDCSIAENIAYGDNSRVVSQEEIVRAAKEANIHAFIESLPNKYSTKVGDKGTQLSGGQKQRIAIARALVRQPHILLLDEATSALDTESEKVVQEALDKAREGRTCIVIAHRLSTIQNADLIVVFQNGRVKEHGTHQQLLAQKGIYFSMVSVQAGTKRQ

For the molecule `COc1cccc2c1C(=O)c1c(O)c3c(c(O)c1C2=O)C[C@@](O)(C(=O)CO)C[C@@H]3O[C@H]1C[C@H](N)[C@H](O)[C@H](C)O1` [Doxorubicin], the IC50 worked out at 168 nM with ABCG2-482-G2, 133 nM in the experiment with ABCG2-482-T7, 16.6 nM with HEK293/pcDNA3.1 [1] and 62.1 nM in the experiment with ABCG2-482-R2.
As to `CCc1c2c(nc3ccc(O)cc13)-c1cc3c(c(=O)n1C2)COC(=O)[C@]3(O)CC` [SN-38], the half-maximal inhibitory concentration (IC50) in the experiment on ABCG2-482-G2 worked out at 152 nM; with ABCG2-482-T7, 162 nM; with HEK293/pcDNA3.1 [1] it was 2.1 nM; in the experiment on ABCG2-482-R2, 71.6 nM.
`CC[C@]1(O)C[C@@H]2CN(CCc3c([nH]c4ccccc34)[C@@](C(=O)OC)(c3cc4c(cc3OC)N(C)[C@H]3[C@@](O)(C(=O)OC)[C@H](OC(C)=O)[C@]5(CC)C=CCN6CC[C@]43[C@@H]65)C2)C1` [Vinblastine]: the IC50 in the experiment with KB-C2 amounted to 34.4 nM; in the experiment on KB-3-1 it was 0.2 nM.
As for `CC[C@]1(O)C[C@H]2CN(CCc3c([nH]c4ccccc34)[C@@](C(=O)OC)(c3cc4c(cc3OC)N(C=O)[C@H]3[C@@](O)(C(=O)OC)[C@H](OC(C)=O)[C@]5(CC)C=CCN6CC[C@]43[C@@H]65)C2)C1` [Vincristine], the IC50 came out at 4.1 nM in the experiment with HEK293/pcDNA3.1 [2] and 1410 nM with HEK/ABCB1.
Regarding `O=C1c2c(O)ccc(O)c2C(=O)c2c(NCCNCCO)ccc(NCCNCCO)c21` [mitoxantrone], the 50% inhibitory concentration (IC50) in the experiment on ABCG2-482-G2 is 179 nM; in the experiment with ABCG2-482-T7, 190 nM; with HEK293/pcDNA3.1 [1], 35.7 nM; with ABCG2-482-R2, 167 nM.
For the molecule `CC(=O)O[C@H]1C(=O)[C@@]2(C)[C@H]([C@H](OC(=O)c3ccccc3)[C@]3(O)C[C@H](OC(=O)[C@H](O)[C@@H](NC(=O)c4ccccc4)c4ccccc4)C(C)=C1C3(C)C)[C@]1(OC(C)=O)CO[C@@H]1C[C@@H]2O` [paclitaxel], the IC50 is 28.3 nM in the experiment with HEK293/pcDNA3.1 [2], 8480 nM in the experiment on HEK/ABCB1, 4930 nM in the experiment on KB-C2 and 6.5 nM in the experiment on KB-3-1.
Turning to `COc1cc2nccc(Oc3ccc(NC(=O)Nc4cc(C)on4)c(Cl)c3)c2cc1OC` [tivozanib], on ABCB1 (P-glycoprotein), the IC50 stood at 2.9 µM.

As a reminder, the IC50 is the concentration that inhibits the measured activity by half.

(Values after paper PMC8366683 (Future oncology (London, England), 2013).)
